Experimental data reported in US20100310544A1, “COMPOSITION COMPRISING CALCIUM IONS AND AT LEAST ONE PROTEOLYTIC ENZYME FOR USE IN THE IN VITRO AND IN VIVO REGENERATION OF CUTANEOUS AND CONNECTIVE TISSUES” (MEDEVICE S.P.A., priority 2007, published 2010).

Tested on: cutis and subcutis
Experiment: In vivo clinical studies II, Q-BASE-CREAM, regeneration and repairing of cutis and subcutis
Design: species or system human
Details: Case 2, surgical suture dehiscence; before Q-BASE-CREAM
Experimental: A clinical study was performed, which was designed to assess the therapeutic effectiveness of the product designated as Q-BASE-CREAM in the regeneration and repairing of cutis and subcutis.
During the period comprised from March to May 2007, a mixed group of volunteers consisting of human (two women and one person) and veterinary (two dogs) patients were included in the clinical study.

Q: With povidone-iodine as the substance, how does the “change of the lesion after 7 days of previous local therapy” value read?
A: no changes in the lesion occurred
